Assay results as given in patent US20140141137A1, “Encapsulated Antimicrobial Material” (Danisco A/S, priority 2012, published 2014).

Legend:
[1] = system: common food spoilage yeasts and moulds; conditions: cited from earlier work
yeast = test: Leavening of bread dough containing natamycin; assay type: cell-based; conditions: 12 ppm on flour weight; about 50 minutes, 85% relative humidity, 40° C.
Description: (§1) A bread is made by preparing a dough containing flour, water, yeast, salt and a dough conditioner. Included in the dough mix is either natamycin or encapsulated natamycin or neither. […] All ingredients are mixed together thoroughly for between 3 and 10 minutes.
The dough is then given a short resting period after mixing (approx. 5 to 10 minutes) followed by scaling at the required weight. A second rest period is then applied following a second moulding in shape the dough as desired. The dough is then placed into a tin or tray. A leavening period for about 50 minutes at 85% relative humidity at 40° C. then follows.

moulds = test: Mould spoilage of sliced bread over shelf life; assay type: cell-based; conditions: 12 ppm on flour weight; normal shelf life period
Description: as §1
When the bread is cool, the natamycin content in the bread is assayed. The natamycin content from bread containing encapsulated natamycin is higher than that in the bread containing unencapsulated natamycin, indicating the heat protective benefit of encapsulated natamycin. The bread is then sliced and observed over the normal shelf life period for growth of moulds.

[2] = Davies et al. 1998; cited from earlier work
[3] = reportedly; or more; cited from earlier work

| Compound | Concentrations inhibiting most strains [1] | Leavening of bread dough (yeast) | Mould spoilage / extension of shelf life of sliced bread (moulds) | pH of optimum stability [2] | Effective levels to preserve foodstuffs [3] |
| --- | --- | --- | --- | --- | --- |
| C[C@@H]1C/C=C/C=C/C=C/C=C/[C@H](O[C@@H]2O[C@H](C)[C@@H](O)[C@H](N)[C@@H]2O)C[C@@H]2O[C@](O)(C[C@@H](O)C[C@H]3O[C@@H]3/C=C/C(=O)O1)C[C@H](O)[C@H]2C(=O)O [natamycin] | 1-15 ppm | poor leavening | Delay of mould spoilage is observed |  |  |
| nisin (ITSISLCTPGCKTGALMGCNMKTATCHCSIHVSK; Lantibiotic nisin-A; UniProt P13068 24-57, looked up) [polypeptide bacteriocin produced by the lactic acid bacteria, Lactococcus lactis subsp. lactis] |  |  |  | 3 | 25-500 IU/g |
